US12134620B2 (ARAXES PHARMA LLC, priority 2018, dated 2024)
Note: time not given here.

These compounds were tested against T1, KRAS G12C 1-169, his-tagged protein, GDP-loaded (Homo sapiens, UniProt P01116, G12C) (assay: Biochemical assay: covalent modification of KRAS G12C, analysed by mass spectrometry (RapidFire/TOF or Q-Exactive)). Details: Modification activity, modification percentage from MS peak intensities.
T1 construct: KRAS G12C 1-169, his-tagged protein, GDP-loaded; His tag
Type: binding
Summary of the method: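 Covalent adduct formation was quantified by intact-protein mass spectrometry, either TOF or C4 LC-Q Exactive Plus, as percent modified versus unmodified protein after deconvolution. Compounds at 8 or 32 μM final were incubated with 0.5 or 2 μM GDP-bound KRAS G12C(1-169)-His in Hepes/NaCl/MgCl2 buffer before acid quench.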
`C=CC(=O)N1CC2(CCN(c3nc(OCc4cccc(C(F)(F)F)c4)nc(-c4c(C)ccc5cnn(C)c45)c3C#N)C2)C1` [Compound I-158, 4-(2-acryloyl-2,6-diazaspiro[3.4]octan-6-yl)-6-(1,6-dimethyl-1H-indazol-7-yl)-2-((3-(trifluoromethyl)ben-zyl)oxy)pyrimidine-5-carbonitrile] was tested, and the Binding % was “++ (++ indicates binding activity from 50 to 85%)”. `C=CC(=O)N1CC2(CCN(c3nc(OCc4cccc(OC)c4)nc(-c4c(C)ccc5cnn(C)c45)c3C#N)C2)C1` [Compound I-159, 4-(2-acryloyl-2,6-diazaspiro[3.4]octan-6-yl)-6-(1,6-dimethyl-1H-indazol-7-yl)-2-((3-methoxybenzyl)oxy) pyrimidine-5-carbonitrile] was tested, and the Binding % was “++ (++ indicates binding activity from 50 to 85%)”. For `C=CC(=O)N1CC2(CCN(c3nc(N4CCC(N5CCN(C)CC5)CC4)nc(-c4c(C)ccc5cnn(C)c45)c3C#N)C2)C1` [Compound I-160, 4-(2-acryloyl-2,6-diazaspiro[3.4]octan-6-yl)-6-(1,6-dimethyl-1H-indazol-7-yl)-2-(4-(4-methylpiperazin-1-yl)piperidin-1-yl)pyrimidine-5-carbonitrile], the Binding % was “++ (++ indicates binding activity from 50 to 85%)”. `C=CC(=O)N1CC2(CCN(c3nc(OCc4cnc(OC)nc4)nc(-c4c(C)ccc5cnn(C)c45)c3C#N)C2)C1` [Compound I-161, 4-(2-acryloyl-2,6-diazaspiro[3.4]octan-6-yl)-6-(1,6-dimethyl-1H-indazol-7-yl)-2-((2-methoxypyrimidin-5-yl)methoxy)pyrimidine-5-carbonitrile] was tested, and the Binding % was “++ (++ indicates binding activity from 50 to 85%)”. `C=CC(=O)N1CC2(CCN(c3nc(OCc4ccc(N5CCOCC5)cn4)nc(-c4c(C)ccc5cnn(C)c45)c3C#N)C2)C1` [Compound I-162, 4-(2-acryloyl-2,6-diazaspiro[3.4]octan-6-yl)-6-(1,6-dimethyl-1H-indazol-7-yl)-2-((5-morpholinopyridin-2-yl)methoxy)pyrimidine-5-carbonitrile] was tested, and the Binding % was “++ (++ indicates binding activity from 50 to 85%)”. `C=CC(=O)N1CC2(CCN(c3nc(OCc4ccccc4)nc(-c4c(C)ccc5cnn(C)c45)c3C#N)C2)C1` [Compound I-163, 4-(2-acryloyl-2,6-diazaspiro[3.4]octan-6-yl)-2-(benzyloxy)-6-(1,6-dimethyl-1H-indazol-7-yl)pyrimidine-5-carbonitrile] was tested, and the Binding % was “++ (++ indicates binding activity from 50 to 85%)”. `C=CC(=O)N1CC2(CCN(c3nc(OCc4ccnnc4)nc(-c4c(C)ccc5cnn(C)c45)c3C#N)C2)C1` [Compound I-164, 4-(2-acryloyl-2,6-diazaspiro[3.4]octan-6-yl)-6-(1,6-dimethyl-1H-indazol-7-yl)-2-(pyridazin-4-ylmethoxy)pyrimidine-5-carbonitrile] was tested, and the Binding % was “++ (++ indicates binding activity from 50 to 85%)”. With `C=CC(=O)N1CC2(CCN(c3nc(OCc4cc(F)cc(F)c4)nc(-c4c(C)ccc5cnn(C)c45)c3C#N)C2)C1` [Compound I-165] the Binding % was “++ (++ indicates binding activity from 50 to 85%)”. In the case of `C=CC(=O)N1CC2(CCN(c3nc(OCc4cc(C(F)(F)F)ccn4)nc(-c4c(C)ccc5cnn(C)c45)c3C#N)C2)C1` [Compound I-166, 4-(2-acryloyl-2,6-diazaspiro[3.4]octan-6-yl)-6-(1,6-dimethyl-1H-indazol-7-yl)-2-((4-(trifluoromethyl)pyri-din-2-yl)methoxy)pyrimidine-5-carbonitrile], the Binding % was “++ (++ indicates binding activity from 50 to 85%)”. For `C=CC(=O)N1CC2(CCN(c3nc(OC[C@@H]4CCCN4C)nc(-c4ccnc(N)n4)c3C#N)C2)C1` [Compound I-167, (S)-6-(2-acryloyl-2,6-diazaspiro[3.4]octan-6-yl)-2′-amino-2-((1-methylpyrrolidin-2-yl)methoxy)-[4,4′-bipyrimidine]-5-carbonitrile], the Binding % was “+ (+ indicates binding activity greater than 0% and up to 50%)”. With `C=CC(=O)N1CC2(CCN(c3nc(OCc4ncccn4)nc(-c4c(C)ccc5cnn(C)c45)c3C#N)C2)C1` [Compound I-168, 4-(2-acryloyl-2,6-diazaspiro[3.4]octan-6-yl)-6-(1,6-dimethyl-1H-indazol-7-yl)-2-(pyrimidin-2-ylmethoxy)pyrimidine-5-carbonitrile] the Binding % was “+ (+ indicates binding activity greater than 0% and up to 50%)”. With `C=CC(=O)N1CC2(CCN(c3nc(OCc4cnc(C)nc4)nc(-c4c(C)ccc5cnn(C)c45)c3C#N)C2)C1` [Compound I-169, 4-(2-acryloyl-2,6-diazaspiro[3.4]octan-6-yl)-6-(1,6-dimethyl-1H-indazol-7-yl)-2-((2-methylpyrimidin-5-yl)methoxy)pyrimidine-5-carbonitirle] the Binding % was “++ (++ indicates binding activity from 50 to 85%)”. In the case of `C=CC(=O)N1CC2(CCN(c3nc(OCc4cccc(C)n4)nc(-c4c(C)ccc5cnn(C)c45)c3C#N)C2)C1` [Compound I-170, 4-(2-acryloyl-2,6-diazaspiro[3.4]octan-6-yl)-6-(1,6-dimethyl-1H-indazol-7-yl)-2-((6-methylpyridin-2-yl)methoxy)pyrimidine-5-carbonitrile], the Binding % was “++ (++ indicates binding activity from 50 to 85%)”. In the case of `C=CC(=O)N1CC2(CCN(c3nc(OCc4cnc(C)nc4)nc(-c4c(C)ccc5[nH]ncc45)c3C#N)C2)C1` [Compound I-171, 4-(2-acryloyl-2,6-diazaspiro[3.4]octan-6-yl)-6-(5-methyl-1H-indazol-4-yl)-2-((2-methylpyrimidin-5-yl)methoxy)pyrimidine-5-carbonitrile], the Binding % was “+++ (+++ indicates binding activity greater than 85%)”. For `C=CC(=O)N1CC2(CCN(c3nc(OCc4cccc(C)n4)nc(-c4c(C)ccc5[nH]ncc45)c3C#N)C2)C1` [Compound I-172, 4-(2-acryloyl-2,6-diazaspiro[3.4]octan-6-yl)-6-(5-methyl-1H-indazol-4-yl)-2-((6-methylpyridin-2-yl)methoxy)pyrimidine-5-carbonitrile], the Binding % was “+++ (+++ indicates binding activity greater than 85%)”. With `C=CC(=O)N1CC2(CCN(c3nc(OCc4ccnnc4)nc(-c4c(C)ccc5[nH]ncc45)c3C#N)C2)C1` [Compound I-173, 4-(2-acryloyl-2,6-diazaspiro[3.4]octan-6-yl)-6-(5-methyl-1H-indazol-4-yl)-2-(pyridazin-4-ylmethoxy)pyrimidine-5-carbonitrile] the Binding % was “++ (++ indicates binding activity from 50 to 85%)”. `C=CC(=O)N1CC2(CCN(c3nc(OCc4cc(C(F)(F)F)ccn4)nc(-c4c(C)ccc5[nH]ncc45)c3C#N)C2)C1` [Compound I-174, 4-(2-acryloyl-2,6-diazaspiro[3.4]octan-6-yl)-6-(5-methyl-1H-indazol-4-yl)-2-((4-(trifluoromethyl)pyri-din-2-yl)methoxy)pyrimidine-5-carbonitrile] was tested, and the Binding % was “++ (++ indicates binding activity from 50 to 85%)”. With `C=CC(=O)N1CC2(CCN(c3c(OCc4ccccn4)ncc(-c4c(C)ccc5cnn(C)c45)c3C#N)C2)C1` [Compound I-175, 3-(2-acryloyl-2,6-diazaspiro[3.4]octan-6-yl)-5-(1,6-dimethyl-1H-indazol-7-yl)-2-(pyridin-2-ylmethoxy)isonicoti-nonitrile] the Binding % was “++ (++ indicates binding activity from 50 to 85%)”. With `C=CC(=O)N1CC2(CC(=O)N(c3nc(N4CCOCC4)nc(-c4c(C)ccc5cn[nH]c45)c3C#N)C2)C1` [Compound I-176, 4-(2-acryloyl-7-oxo-2,6-diazaspiro[3.4]octan-6-yl)-6-(6-methyl-1H-indazol-7-yl)-2-morpholinopyrimidine-5-carbonitrile] the Binding % was “+ (+ indicates binding activity greater than 0% and up to 50%)”. `C=CC(=O)N1CC2(CC(=O)N(c3nc(N4CCOCC4)nc(-c4c(O)cccc4F)c3C#N)C2)C1` [Compound I-177, 4-(2-acryloyl-7-oxo-2,6-diazaspiro[3.4]octan-6-yl)-6-(2-fluoro-6-hydroxyphenyl)-2-morpholinopyrimidine-5-carbonitrile] was tested, and the Binding % was “+ (+ indicates binding activity greater than 0% and up to 50%)”. For `C=CC(=O)N1CC2(CCN(c3nc(=O)n(Cc4ccccc4)c(-c4c(C)ccc5[nH]ncc45)c3C#N)C2)C1` [Compound I-178, 4-(2-acryloyl-2,6-diazaspiro[3.4]octan-6-yl)-1-benzyl-6-(5-methyl-1H-indazol-4-yl)-2-oxo-1,2-dihydropyrimidine-5-carbonitrile], the Binding % was “+ (+ indicates binding activity greater than 0% and up to 50%)”. `C=CC(=O)N1CC2(CCN(c3c(C#N)c(-c4c(C)ccc5[nH]ncc45)[nH]c(=O)[n+]3Cc3ccccc3)C2)C1` [Compound I-179, 6-(2-acryloyl-2,6-diazaspiro[3.4]octan-6-yl)-1-benzyl-4-(5-methyl-1H-indazol-4-yl)-2-oxo-2H-1l4,3l2-pyrimidine-5-carbonitrile] was tested, and the Binding % was “+ (+ indicates binding activity greater than 0% and up to 50%)”. `C=CC(=O)N1CC2(CCN(c3nc(C4CCN(C)CC4)nc(-c4c(C)ccc5[nH]ncc45)c3C#N)C2)C1` [Compound I-180, 4-(2-acryloyl-2,6-diazaspiro[3.4]octan-6-yl)-6-(5-methyl-1H-indazol-4-yl)-2-(1-methylpiperidin-4-yl)pyrimidine-5-carbonitrile] was tested, and the Binding % was “++ (++ indicates binding activity from 50 to 85%)”. With `C=CC(=O)N1CC2(CCN(c3nc(OCc4ccc(N5CCN(C)CC5)cn4)nc(-c4c(C)ccc5[nH]ncc45)c3C#N)C2)C1` [Compound I-181, 4-(2-acryloyl-2,6-diazaspiro[3.4]octan-6-yl)-6-(5-methyl-1H-indazol-4-yl)-2-((5-(4-methylpiperazin-1-yl)pyridin-2-yl)methoxy)pyrimidine-5-carbonitrile] the Binding % was “++ (++ indicates binding activity from 50 to 85%)”.
